Source: patent US20090215807A1, “Novel Diazaspiroalkanes and Their Use for Treatment of CCR8 Mediated Diseases” (priority 2005, published 2009)

What was measured:
[1] = Human microsomal stability assay; format: in vitro ADME; conditions: human microsomes (Xenotech); human microsomes 1 mg protein/mL, compound 2.5 μM, NADPH 2 mM, pH 7.4, 37° C.; read-out: Intrinsic clearance
Procedure: Human Microsomal Stability Assay
Samples at four time-points (0, 5, 15 and 30 minutes) are withdrawn and the enzymatic reaction is terminated by protein precipitation with 1% acetic acid in acetonitrile. The incubations are performed on a thermostated plate (37° C.) placed on a Tecan worktable, and all liquid handling was performed robotically. After centrifugation of the samples, the supernatants are pooled in sets of four before they are analysed by liquid chromatography with tandem mass spectrometry detection (LC/MS/MS) using multiple reaction monitoring (MRM). Data are presented as intrinsic Clearance (CLint), μl/min/mg protein, calculated from the initial linear part of the compound disappearance curve.

[2] = biological target: T1, human recombinant chemokine CCR8 receptor (Homo sapiens, UniProt P51685); test: CCL1 SPA binding assay; conditions: inhibition of 125I CCL1 binding to CCR8 membranes from transfected CHO-K1 cells
T1 construct: purchased Euroscreen ES-136-M; host or cells: CHO-K1 cells (membranes)
Procedure: 1 μl of DMSO was added to the blank control wells and 1 μl unlabeled CCL1 (300 nM) was added to background control wells. 50 μl of the SPA bead-membrane mixture was added into each well. […] Plates were then incubated at RT with shaking (700 rpm) for 90 minutes followed by 30 minutes at RT without shaking. The plate was read in a Wallac MicroBeta counter for 2 minutes/well.

T1 sequence (P51685 whole entry): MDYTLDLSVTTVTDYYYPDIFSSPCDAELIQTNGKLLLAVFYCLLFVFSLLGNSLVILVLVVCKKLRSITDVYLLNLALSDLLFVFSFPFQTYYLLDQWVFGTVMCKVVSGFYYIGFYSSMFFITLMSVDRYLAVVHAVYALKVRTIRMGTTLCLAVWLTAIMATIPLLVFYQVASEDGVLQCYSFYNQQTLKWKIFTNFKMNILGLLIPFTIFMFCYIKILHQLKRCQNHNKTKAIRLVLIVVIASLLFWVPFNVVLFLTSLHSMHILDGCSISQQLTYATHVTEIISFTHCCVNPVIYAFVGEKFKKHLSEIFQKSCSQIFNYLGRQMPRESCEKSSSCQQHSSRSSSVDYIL

microsomal CLint at 2.5 μM [1]	IC50 [2]	Structure (SMILES)
89 µL/min/mg	–	COc1ccccc1Oc1ccccc1CN1CCC2(CC1)CCN(C(=O)c1ccncc1)CC2 [X, 3-isonicotinoyl-9-[2-(2-methoxyphenoxy)benzyl]-3,9-diazaspiro[5.5]undecane, reference compound]
< 10 µL/min/mg	268 nM	COc1ccccc1Oc1ccccc1CN1CCC2(CC1)CCN(C(=O)c1ccc[n+]([O-])c1)CC2 [Example 5, 3-[2-(2-methoxyphenoxy)benzyl]-9-[(1-oxidopyridin-3-yl)carbonyl]-3,9-diazaspiro[5.5]undecane]
183 µL/min/mg	–	COc1ccccc1Oc1cccc(CN2CCC3(CC2)CCN(C(=O)c2ccncc2)CC3)c1 [Y, 3-isonicotinoyl-9-[3-(2-methoxyphenoxy)benzyl]-3,9-diazaspiro[5,5]undecane, reference compound]
< 10 µL/min/mg	207 nM	COc1ccccc1Oc1cccc(CN2CCC3(CC2)CCN(C(=O)c2ccc[n+]([O-])c2)CC3)c1 [Example 8, 3-[3-(2-methoxyphenoxy)benzyl]-9-[(1-oxidopyridin-3-yl)carbonyl]-3,9-diazaspiro[5.5]undecane]

Further lines, the compound ahead of its results:

Structure (SMILES)	microsomal CLint at 2.5 μM [1]	IC50 [2]
O=C(c1cccc[n+]1[O-])N1CCC2(CCN(Cc3cccc(Oc4ccccc4)c3)CC2)CC1 [Example 1, 3-[(1-oxidopyridin-2-yl)carbonyl]-9-(3-phenoxybenzyl)-3,9-diazaspiro[5.5]undecane]	< 10 µL/min/mg	193 nM
CC(C)COc1ccccc1CN1CCC2(CC1)CCN(C(=O)c1ccc[n+]([O-])c1)CC2 [B, 3-(2-isobutoxybenzyl)-9-[(1-oxidopyridin-3-yl)carbonyl]-3,9-diazaspiro[5.5]undecane, reference compound]	–	3050 nM
COc1ccccc1Oc1ccccc1CN1CCC2(CC1)CCN(C(=O)c1cccc[n+]1[O-])CC2 [Example 3, 3-[2-(2-methoxyphenoxy)benzyl]-9-[(1-oxidopyridin-2-yl)carbonyl]-3,9-diazaspiro[5.5]undecane]	< 10 µL/min/mg	87 nM
CC(C)COc1ccccc1CN1CCC2(CC1)CCN(C(=O)c1cc[n+]([O-])cc1)CC2 [A, 3-(2-isobutoxybenzyl)-9-(1-oxidoisonicotinoyl)-3,9-diazaspiro[5.5]undecane, reference compound]	–	2670 nM
O=C(c1cc[n+]([O-])cc1)N1CCC2(CCN(Cc3cccc(Oc4ccccc4)c3)CC2)CC1 [Example 2, 3-(1-oxidoisonicotinoyl)-9-(3-phenoxybenzyl)-3,9-diazaspiro[5.5]undecane]	< 10 µL/min/mg	305 nM
COc1ccccc1Oc1ccccc1CN1CCC2(CC1)CCN(C(=O)c1cc[n+]([O-])cc1)CC2 [Example 4, 3-[2-(2-methoxyphenoxy)benzyl]-9-(1-oxidoisonicotinoyl)-3,9-diazaspiro[5.5]undecane]	< 10 µL/min/mg	117 nM
